Measured values taken from patent US20170363637A1, “Method and Kit for Determining Risk of Preterm Birth and/or Birth of Low-Birth-Weight Baby” (HIROSHIMA UNIVERSITY, priority 2014, published 2017).

Key:
[1] = tested on: placental tissues of P.g.-infected mice; assay: Histological and immunohistochemical observation of placental tissues at gestational age of 17 days; assay type: in vivo, mouse; settings: placenta at gestational age of 17 days; P.g./N-Lac group vs P.g. group
Method: Immunohistochemical staining was performed in a conventional manner. As PMNL markers, MCA771GA (rat anti-neutrophils antibody, purchased from AbD Serotec (Raleigh, N.C., USA), 1:5000), rabbit monoclonal anti-COX-2 antibody (purchased from Cell Signaling Technology (Danvers, Mass., USA), 1:100), goat anti-TNF-α antibody (purchased from Santa Cruz Biotechnology, Inc. (Santa Cruz, Calif., USA), 1:50), and rat anti-galectin-3 antibody (purchased from BioLegend, Inc (San Diego, Calif., USA), 1:500) were used. A high polymer method (Histofine Max-PO; Nichirei Biosciences) was used for immunohistochemical staining of the markers. Specificity of the antibodies was ascertained by substituting PBS/serum for each antibody.
8-wks-old female C57Bl/6J mice were infected with P.g. w83 strain via the pulp chambers of the first molars. After periapical granuloma, which serves as a persistent source of P.g., was established at 6wks post-infection, mating was started (P.g. group). A half of the mice in P.g. group was intraperitoneally administered with 5 mg/kg of N-Lac (Sigma-Aldrich) at the gestational ages of 12, 15 and 18 days (P.g./N-Lac group). Healthy pregnant mice without P.g. infection were used as a control (NC group). The gestational period was compared among the groups. […]

HTR-8 cells [2] = assay: Effect of Gal-3 inhibitor on human placenta cell line stimulated with P.g.-LPS (Western-blotting); assay type: cell-based
Method: Human trophoblast cell line—HTR-8/Svneo cells were kindly gifted from Prof. Charles H. Graham (Queen's University, Canada). The cells were grown in RPMI 1640 media (Nissui Pharmaceutical Co., Tokyo, Japan) supplemented with 10% heat-inactivated FBS (Invitrogen) and 100 Uml penicillin-streptomycin (Gibco, Tokyo, Japan). For the experiments, cells were seeded at a density of 5×10^5 cells in 35 mm culture dishes. The cells were maintained at 37° C. in a normal atmosphere containing 5% CO2. The cells were stimulated by 1 μg/ml of P.g.-LPS (Invivogen, SanDiego, Calif., USA), expression of Gal-3 mRNA and Gal-3 levels in the culture media were measured at one, two, or three days after the stimulation.
HTR-8 cells were stimulated with P.g.-LPS (1 μg/ml) and N-Lac (10^−9 M and 10^−8 M), and the expression levels of Gal-3, TNF-α, COX-2 and IL-8 in the culture supernatants were measured by RT-PCR and Western-blotting.

[3] = tested on: C57Bl/6J mice infected with P.g. w83 strain; assay: Effect of Gal-3 inhibitor on preterm birth induced by dental infection of P.g. (gestational period); assay type: in vivo, mouse; settings: 5 mg/kg N-Lac intraperitoneally at gestational ages of 12, 15 and 18 days
Method: Effect of a Gal-3 inhibitor, N-acetyllactosamine (N-Lac), on preterm birth induced by dental infection of P.g. was studied.
8-wks-old female C57Bl/6J mice were infected with P.g. w83 strain via the pulp chambers of the first molars. After periapical granuloma, which serves as a persistent source of P.g., was established at 6wks post-infection, mating was started (P.g. group). A half of the mice in P.g. group was intraperitoneally administered with 5 mg/kg of N-Lac (Sigma-Aldrich) at the gestational ages of 12, 15 and 18 days (P.g./N-Lac group). Healthy pregnant mice without P.g. infection were used as a control (NC group). The gestational period was compared among the groups. At the gestational age of 17 days the placental tissues were harvested, and inflammatory cell infiltration (MΦ, neutrophils), damage of endothelial cells (CD31), and immunolocalization of factors promoting delivery (TNF-α, COX-2, and Gal-3) were compared among the groups.

HTR-8 cells [4] = assay: TNF-α stimulation of HTR-8 cells, Gal-3 production; assay type: cell-based, human; settings: 10 ng/ml rhTNF-α; 2 days post-stimulation; P<0.01
Method: Gal-3 protein levels in the cell culture supernatants were analyzed by Human Galectin-3 Immunoassay (R&D Systems) as the manufacturer recommended. Statistical differences among the experimental groups were evaluated by analysis of T test using GraphPad Prism (version 6.0c, CA, USA) with the level of significance set at P<0.01**.
Effect of TNF-α, which is produced by P.g.-LPS stimulation, on Gal-3 production was studied.
Recombinant human TNF-α (rhTNF-α, purchased from R&D Systems (Minneapolis, Minn., USA)) was applied at 10 ng/ml to HTR-8 cells for 1, 2 or 3 days and the Gal-3 protein levels in the culture media were measured. The cell culture and measurement of the Gal-3 protein levels were performed in the same manner as in Example 6.

[5] = P.g.-LPS 1 μg/ml and N-Lac (10^−9 M and 10^−8 M)

| Molecule | decrease of CD31 and expression of TNF-α, COX-2 and Gal-3 in placenta [1] | denature and detachment of the amnion membrane, denature and necrosis of the placenta, increase of inflammatory cell infiltration [1] | Gal-3 expression upregulated by the P.g.-LPS stimulation (HTR-8 cells [2]; [5]) | TNF-α expression upregulated by the P.g.-LPS stimulation (HTR-8 cells [2]; [5]) | expression of TNF-α (HTR-8 cells [2]; incubation with N-Lac (10^−9 M and 10^−8 M)) | preterm birth induced by P.g. ([3]; p<0.05) | average gestational period ([3]; P.g./N-Lac group, NC 20, P.g. 18.3) | Gal-3 protein level in culture media (HTR-8 cells [4]) |
| --- | --- | --- | --- | --- | --- | --- | --- | --- |
| CC(=O)N[C@H]1C(O)O[C@H](CO)[C@@H](O[C@@H]2O[C@H](CO)[C@H](O)[C@H](O)[C@H]2O)[C@@H]1O (some centres unmarked) [N-Lac, N-acetyllactosamine] | improved | not observed | remarkably reduced | remarkably reduced | suppressed | significantly suppressed preterm birth | 20.7 days |  |
| TNF-α |  |  |  |  |  |  |  | significant increased |
